Laboratory results: paper PMC7781311 (bioRxiv, 2021)
Starred links: 1 amine or outer side, 2 acyl side, 3 side chain; linkers in the order of their positions; H or OH if unused. Residues, ends and D or L forms follow the SMILES beside them. CO = O=C([*:1])[*:2]

Test system: SARS-CoV-2-S pseudotyped particles (PP)
Type: cell-based
Conditions: not given

| Compound | SARS-2 PP Efficacy |
| --- | --- |
| CCOC(=O)c1ccc(OC(=O)CCCCCNC(=N)N)cc1 [NCGC00025297, Gabexate] | 0% |
| CC(C)[C@H](NC(=O)[C@H](CCCNC(=N)N)NC(=O)N[C@@H](Cc1ccccc1)C(=O)O)C(=O)N[C@H](C=O)CCCNC(=N)N [NCGC00390338, Antipain] ({Phe-CO}-Arg-Val-Arg-aldehyde) | about 60% |
| COC(=O)[C@H](Cc1cccc(C(=N)N)c1)[C@@H](C)NC(=O)c1ccc(-c2cc[n+]([O-])cc2)cc1 [NCGC00378763, Otamixaban] | 50% |
| N=C(N)c1ccc2nc(-c3cc(CC(=O)N[C@@H](CC(=O)O)C(=O)O)cc(-c4cc(S(N)(=O)=O)ccc4O)c3O)[nH]c2c1 [NCGC00387860, PCI-27483] | about 60% |
| CN(C)C(=O)COC(=O)Cc1ccc(OC(=O)c2ccc(NC(=N)N)cc2)cc1 [NCGC00167526, Camostat] | 100% |
| N=C(N)c1ccc2cc(OC(=O)c3ccc(N=C(N)N)cc3)ccc2c1 [NCGC00160398, Nafamostat] | 100% |

Same assay, conditions: listed as otamixaban

| Compound | SARS-2 PP Efficacy |
| --- | --- |
| COC(=O)[C@H](Cc1cccc(C(=N)N)c1)[C@@H](C)NC(=O)c1ccc(-c2cc[n+]([O-])cc2)cc1 [NCGC00378763, Otamixaban] | about 50% |
